PubChem BioAssay (NCI)
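How tested: cells in 96-well plates exposed to compound for 48 hours at five concentrations. GI50 marks 50% less growth. TGI marks complete inhibition of growth.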

Columns and labels:
Assay in all cases: NCI-60 cell line screen, 48 h
786-0 renal = tested on: 786-0 renal
SF-295 CNS = tested on: SF-295 CNS
OVCAR-4 ovarian = tested on: OVCAR-4 ovarian
UACC-257 melanoma = tested on: UACC-257 melanoma
OVCAR-3 ovarian = tested on: OVCAR-3 ovarian
HOP-62 NSCLC = tested on: HOP-62 NSCLC
MOLT-4 leukemia = tested on: MOLT-4 leukemia
ACHN renal = tested on: ACHN renal
PC-3 prostate = tested on: PC-3 prostate
MDA-MB-435 = tested on: MDA-MB-435

Compound | TGI (786-0 renal) [µM] | TGI (SF-295 CNS) [µM] | TGI (OVCAR-4 ovarian) [µM] | TGI (UACC-257 melanoma) [µM] | TGI (OVCAR-3 ovarian) [µM] | TGI (HOP-62 NSCLC) [µM] | TGI (MOLT-4 leukemia) [µM] | TGI (ACHN renal) [µM] | TGI (PC-3 prostate) [µM] | TGI (MDA-MB-435) [µM] | GI50 (PC-3 prostate) [µM] | GI50 (MDA-MB-435) [nM] | GI50 (786-0 renal) [nM] | GI50 (SF-295 CNS) [nM] | GI50 (OVCAR-4 ovarian) [µM] | GI50 (UACC-257 melanoma) [nM] | GI50 (OVCAR-3 ovarian) [µM] | GI50 (HOP-62 NSCLC) [nM] | GI50 (MOLT-4 leukemia) [nM] | GI50 (ACHN renal) [µM]
CCOC(=O)C(=O)Nc1nc2ccc(OC)cc2s1 | > 100 | > 100 | > 100 | > 100 | > 100 | > 100 | > 100 | > 100 |  |  |  |  |  |  |  |  |  |  |  | 
COc1ccc(N=C2C(=O)Nc3ccc(Br)cc32)cc1 | 43.6 | > 100 |  | 48.1 | 62.4 | 88.4 | 74.4 | 38.6 | > 100 | 27.4 |  |  |  |  |  |  |  |  |  | 
CNC(=O)N(CCCCC(NC(C)=O)C(=O)NCc1ccccc1)Cc1ccccc1 (configuration not stated) | > 100 | > 100 | > 100 | > 100 | > 100 | > 100 | > 100 | > 100 |  |  |  |  |  |  |  |  |  |  |  | 
NC(=O)N1N=C2c3ccccc3OC[C@H]2[C@@H]1c1ccccc1 | > 100 | > 35.7 | > 100 | > 100 | > 76.3 | > 100 | 97.2 | > 100 |  |  |  |  |  |  |  |  |  |  |  | 
COc1cc2ccc(CC(=O)O)cc2cc1OC | > 100 |  | > 100 | > 100 | > 100 | > 100 | > 100 | > 100 |  |  |  |  |  |  |  |  |  |  |  | 
O=C(O)c1cc2ccc(Cl)cc2c(O)c1C1=CCCCC1 | > 100 | > 100 | 57.2 | 88.5 | > 100 | > 100 | > 100 | > 100 |  |  |  |  |  |  |  |  |  |  |  | 
COc1ccc(C2C(C(=O)O)=C(COC(C)=O)Oc3cc4c(cc32)OCO4)c(OC)c1 (configuration not stated) | > 100 | > 100 | > 100 | > 100 | > 100 | > 100 | > 100 | > 100 |  |  |  |  |  |  |  |  |  |  |  | 
Clc1ccc(/C=C/c2csnn2)cc1 | > 100 | > 100 | > 100 | > 100 | > 100 | > 100 | > 100 | > 100 |  |  |  |  |  |  |  |  |  |  |  | 
Cc1cccc(NC(=O)CSc2nnc(-c3ccc(N=Cc4ccc(Cl)cc4)cc3)o2)c1 | > 100 | > 100 | > 100 | > 100 |  | > 100 | > 100 | > 100 |  |  |  |  |  |  |  |  |  |  |  | 
Nc1cccc(C(=O)/C=C/c2ccccc2O)c1 | > 100 | > 100 |  | > 100 | > 100 | > 100 | > 100 | > 100 |  |  |  |  |  |  |  |  |  |  |  | 
CC1(C)O[C@@H](CCl)C[C@@H](C#N)O1 | > 100 | > 100 | > 100 | > 100 | > 100 | > 100 | > 100 | > 100 |  |  |  |  |  |  |  |  |  |  |  | 
NC(=O)C1C(=O)Oc2cccnc21 (configuration not stated) | > 100 | > 100 |  | > 100 | > 100 | > 100 | > 100 | > 100 |  |  |  |  |  |  |  |  |  |  |  | 
Cc1cn([C@H]2CN(O)C[C@@H](CO)O2)c(=O)[nH]c1=O | > 100 | > 100 | > 100 | > 100 |  | > 100 | > 100 | > 100 | > 100 | > 100 |  |  |  |  |  |  |  |  |  | 
CN(C)CN(C)c1nc(N(C)C)nc(N(C)C)n1 | > 100 | > 100 | > 100 | > 100 | > 100 | > 100 | > 100 | > 100 |  |  |  |  |  |  |  |  |  |  |  | 
O=C(Cn1ccnc1[N+](=O)[O-])NCc1ccc(F)cc1 | > 100 | > 100 | > 100 | > 100 | > 100 | > 100 | > 100 | > 100 |  |  |  |  |  |  |  |  |  |  |  | 
CC(=O)Nc1ccc2c(c1)[nH]c(=O)c1cc(Cl)ccc12 | > 100 | > 100 | > 100 | 59.5 |  | > 100 | 8.53 | > 100 |  | > 100 |  |  |  |  |  |  |  |  |  | 
CCOc1ccccc1NC(=O)C1=C(C)NC(C)=C(C(=O)Nc2ccccc2OCC)C1c1ccc2c(c1)OCO2 | > 100 | 74.6 | 76.2 | > 100 | 71.8 | > 100 | 75.3 | > 100 |  |  |  |  |  |  |  |  |  |  |  | 
N#CC(C#N)=C/C=C/c1ccccc1[N+](=O)[O-] | > 10 | > 10 | > 10 | > 10 | > 10 | > 10 | > 10 | > 10 | > 10 |  |  |  |  |  |  |  |  |  |  | 
Cc1cc2nc3c(C(OC4OC(CO)C(O)C(O)C4O)C(O)CO)nn(-c4ccc(F)cc4)c3nc2cc1C (configuration not stated) | > 100 | > 100 | > 100 | > 100 | > 100 | > 100 | > 100 | > 100 |  |  |  |  |  |  |  |  |  |  |  | 
CN(C)CCC(/C=C/c1ccccc1)=N\Nc1c(F)c(F)c(F)c(F)c1F | > 100 | > 100 | > 100 | > 100 | > 100 | > 100 | > 100 | > 100 |  |  |  |  |  |  |  |  |  |  |  | 
CN(C)CC(=O)N1CCc2c([nH]c3ccccc23)C1c1cccnc1 (configuration not stated) | > 100 |  | > 100 | > 100 | > 100 | > 100 | > 100 | > 100 | > 100 | > 100 | 93 | > 100000 |  |  |  |  |  |  |  | 
OCCN1CCCN(CCCN2c3ccccc3Sc3ccc(C(F)(F)F)cc32)CC1 | 5.25 | 3.74 | 13.4 | 3.65 | 13.9 | 5.05 | 5.2 | 13.4 |  | 3.33 |  | 1670 | 2210 | 1760 | 3.11 | 1940 | 3.84 | 2250 | 2390 | 3.56
O=C(N[C@H]1CC2(C=C(I)C(=O)C(I)=C2)OC1=O)OCc1ccccc1 | 35.2 | 37.3 | 33.5 | 32.4 | 31.3 | 45.6 |  | 32.8 |  |  |  |  |  |  |  |  |  |  |  | 
COc1ccc(S(=O)(=O)NNS(C)(=O)=O)cc1OC | > 100 | > 100 | > 100 | > 100 |  | > 100 | > 100 | > 100 |  |  |  |  |  |  |  |  |  |  |  | 
